# Measured values as given in patent publication US6747024B1, “Heterocyclic compounds and their use as medicines” (Societe de Conseils de Recherches et d'Applications …, priority 1999, dated 2004).
row,melting point [°C],Structure (SMILES)
1,199 to 201,"CC(=O)O[C@H]1OCC[C@@H]1NC(=O)[C@H](CC(C)C)NC(=O)c1ccc2c(c1)Nc1ccccc1S2 [Example 18.1, (2R,3S)-3-({(2S)-4-methyl-2-[(10H-phenothiazin-2-ylcarbonyl)amino]-pentanoyl}amino)tetrahydro-2-furanyl acetate]"
2,205 to 208,"CC(=O)O[C@@H]1OCC[C@@H]1NC(=O)[C@H](CC(C)C)NC(=O)c1ccc2c(c1)Nc1ccccc1S2 [Example 18.2, (2S,3S)-3-({(2S)-4-methyl-2-[(10H-phenothiazin-2-ylcarbonyl)amino]-pentanoyl}amino)tetrahydro-2-furanyl acetate]"
